The values that follow come from a melting point compilation (Tetko et al.; mined from patent text by program, amines drawn as free bases though some values may be those of a salt).

In turn, `COc1cccc(-c2nc3c4ccccc4ccn3n2)c1` returned a melting point of 159 to 160 °C.

Regarding `COc1ccc(Nc2nc(=O)cc(N)n2-c2ccccc2)cc1`, the melting point was in the range of 213 to 216 °C.

In the case of `CC(C)Nc1c(-c2ccc(S(C)(=O)=O)cc2)cnn(Cc2ccccc2)c1=O`, the melting point is 146 to 147 °C.

Molecule `CC(C)c1nc(CO)n(CC(=O)c2ccccc2)c1Sc1cc(Cl)cc(Cl)c1` yielded a melting point of 205 to 211 °C.

Regarding `NCc1ccccc1C(F)(F)C(F)(F)c1ccc(F)cc1`, the melting point fell in the range of 64 to 66 °C.

`COc1cccc2c(=O)c(OCC(=O)O)coc12` showed a melting point of 215 to 217 °C.

Molecule `COc1cc(Oc2cccc3c2NC(=O)C3SC)cc(OC)c1OC` (stereo unspecified) registered a melting point of 155 to 158 °C.

Molecule `COc1ccc(C(=O)c2c(-c3ccc(O)cc3)sc3cc(O)ccc23)cc1` showed a melting point of 138 to 140 °C.

Take `O=[N+]([O-])C(CO)(CO)CCc1ccc(Sc2cccc(OCc3ccccc3)c2)cc1Cl`: the melting point is 69 to 70 °C.

The molecule `CSc1ccc(-c2nn(Cc3ccccc3)c(=S)cc2-c2ccc(Cl)cc2)cc1` gave a melting point of 103 °C.

Molecule `C=C(C)Cn1c(=O)n(C)c(=O)c2c[nH]nc21` registered a melting point of 232 to 233 °C.

Consider `Cc1c(C)c(O)c(CCC(C)(O)COc2ccc(CC3SC(=O)NC3=O)cc2)c(C)c1O` (stereo unspecified), for which the melting point lay within 84 to 88 °C.

With `CC(C)(O)Cn1cnc2c(N)nc3cc(CCC(=O)N4CCOCC4)ccc3c21`, the melting point lay within 217 to 218 °C.

In turn, `C=Cn1c2ccccc2c2cc(Br)ccc21` came in with a melting point of 74 to 74.5 °C.

With `CCCCCNC(=S)NC(=Nc1ccccc1)c1ccccc1`, the melting point lay in the range of 157 to 158 °C.

Molecule `CS(=O)(=O)c1ccc(-c2nc(SCc3ccccc3)[nH]c2-c2ccc(F)cc2)cc1` registered a melting point of 155 to 156 °C.

`N#CCc1cc(Cl)c(C(=O)c2ccc(Cl)cc2)[nH]1` registered a melting point of 194 to 197 °C.

`N#Cc1c(N)nn(-c2c(Cl)cc(C(F)(F)F)cc2Cl)c1N` displayed a melting point of 208 to 210 °C.

`CCOC(=O)c1nn(-c2ccccc2)c(=O)c2c1c1ccc(Cl)cc1n2C`: the melting point fell in the range of 216 to 218 °C.

Molecule `CCn1nc(-c2sc(N)nc2-c2ccccc2)ccc1=O` had a melting point of 232 to 235 °C.

`Nc1ccc(F)cc1-c1ccc(Cl)c(Cl)c1` had a melting point of 58 °C.

For the molecule `COc1cc2cc(COC(C)=O)c(COC(C)=O)c(-c3ccncc3)c2cc1OC`, the melting point was 165 to 167 °C.

With `c1ccc(CN2CCC(NC3CCOCC3)CC2)cc1`, the melting point was 60 °C.

As for `Cc1oc2c(NC(=O)c3c(Cl)cccc3Cl)cccc2c1CN`, the melting point is 200 to 203 °C.

Molecule `BrCCCCCOc1ccc2c(c1)OCO2` had a melting point of 54 to 57 °C.

With `CN(C)c1cc2c(cc1Cl)NC(=O)CC(c1cccc(-c3csc(N)n3)c1)=N2`, the melting point was in the range of 247 to 248 °C.

As to `Cc1nonc1-n1cc(C(=O)O)c(=O)c2cc(F)c(F)cc21`, the melting point was in the range of 238 to 241 °C.

`CCNC(=O)Nc1cnc2ccc(Cl)nc2n1` returned a melting point of 240 °C.

`CCCc1c(OCCCCC#N)ccc(C(=O)c2ccccc2OC)c1O` displayed a melting point of 85 to 86.5 °C.

`CCN(CC)c1ccc([N+](=O)[O-])cn1` had a melting point of 75 to 76 °C.

`CCOC(=O)C1CCN(C(=O)CN2CCN(c3ccncc3)CC2)CC1` registered a melting point of 102 to 104 °C.

Molecule `Cc1cnc2[nH]cc(/C=C3\N=C(N(C)CC(C)C)NC3=O)c2c1` showed a melting point of 287 to 289 °C.

In turn, `Cc1nc(Cc2ccc(NC(=O)/C=C/c3cnn(C)c3-c3ccc(F)cc3)cc2)cs1` showed a melting point of 192 to 193 °C.

`CC1(C)NC(=O)N(Cc2ccccc2)C1=O` came in with a melting point of 101 to 104 °C.

As to `Cc1ccc(S(=O)(=O)OCC2CCc3ncsc3C2)cc1` (stereo unspecified), the melting point lay within 90 to 91 °C.

`S=C(c1cc2n(c1)Cc1ccccc1-n1ccnc1-2)N1CCOCC1` came in with a melting point of 210 to 211 °C.

On to `COc1ccc(OC2COc3ccc(OCc4cc(OC)ccn4)cc3C2O)cc1` (stereo unspecified), for which the melting point was 80 to 82 °C.

For `O=C(O)c1ccc(C(=O)Nc2cccc(Nc3nc(-c4cccnc4)cs3)c2)cc1`, the melting point came out at 299 °C.

With `CS(=O)(=O)c1ccc(-c2cc(C(CCCCCO[N+](=O)[O-])=NO)nn2C2CCCCC2)cc1`, the melting point lay within 111 to 113 °C.

The molecule `CN1CC[C@@H](c2c(O)cc(O)c3c(=O)cc(-c4cc(Cl)ccc4Br)oc23)[C@@H]1CO` gave a melting point of 233 to 235 °C.

On to `CC1(C)CC(=NO)CC(=NO)C1C#N` (stereo unspecified), for which the melting point fell in the range of 139 to 140 °C.

The molecule `O=c1c2cccnc2c(-c2cccc(Cl)c2)cn1CC1CCCC1` gave a melting point of 122 to 124 °C.

For the molecule `Cc1cc(C)cc(NCc2ccc3nc(NC4CCNC(CCN5CCOCC5)C4)n(Cc4nc(C)ccc4O)c3c2)c1` (stereo unspecified), the melting point is 150 °C.

In turn, `CCCCc1nc2ccccc2n1CC(=O)O` showed a melting point of 70 to 71 °C.

As for `Cc1sc(C(=O)O)cc1NC(=O)Cc1ccccc1`, the melting point is 249 to 250 °C.

Regarding `Cc1c(Cl)cc(C(C)(C)C)c(O)c1C(=O)Oc1ccccc1`, the melting point was 68 to 69 °C.

Molecule `CCCC(=O)NC(C)c1nnc(C)[nH]c1=O` (stereo unspecified) showed a melting point of 235 to 237 °C.

The molecule `N#CC(=Cc1ccc[nH]1)c1cccnc1` displayed a melting point of 139 to 142 °C.

In turn, `CN(C)C(=O)Nc1ccc(OCC(=O)c2ccccc2)c(Cl)c1` came in with a melting point of 148 to 150 °C.

`CCCCC1=NC2(CCCC2)C(=O)N1Cc1ccc(-c2ccccc2S(=O)(=O)Nc2noc(C)c2C)c(COCC)c1` showed a melting point of 148 °C.

Molecule `O=C(C=Cc1ccncc1)c1cccs1` gave a melting point of 150 to 152 °C.

In the case of `COc1cnc(CCCOc2cccc(CN3CCCC3)c2)[nH]c1=O`, the melting point was 92 to 95 °C.

As to `CC1CC(C)(C)c2cccc(NC(=O)c3cn(C)nc3C(F)F)c21` (stereo unspecified), the melting point lay in the range of 131 to 134 °C.

Take `Cc1nc2c(N)nc3ccccc3c2n1CCCNS(C)(=O)=O`: the melting point is 236 to 238 °C.

Regarding `Clc1c(CBr)c(CBr)cc2ccccc12`, the melting point stood at 108 °C.

`O=C1NC(=O)C(c2ccc(OCCC3Oc4ccccc4N(Cc4cccc(Cl)c4)C3=O)cc2)S1` (stereo unspecified) yielded a melting point of 70 to 72 °C.

In the case of `COC(Nc1ccccc1)(OC)c1ccnc(C(=O)c2ccccc2)c1`, the melting point lay in the range of 123 to 124 °C.

As to `CCN(CC)CC(O)Cn1cc(-c2ccccc2)c2ccccc2c1=O` (stereo unspecified), the melting point came out at 106 °C.

`CC(C)Nc1nc(C(=O)O)cn1C`: the melting point turned out to be 247 °C.

`O=S(=O)(c1cccc(-c2cc(-c3nc(-c4ccc(C(F)(F)F)cc4)cc(C(F)(F)F)n3)ccn2)c1)N1CCCC1`: the melting point is 184 °C.

`Cc1nc2c(N)nc3cccnc3c2n1Cc1cc(-c2ccc(F)cc2)no1` returned a melting point of 239 to 240 °C.

The molecule `CCOC(=O)c1cnc2[nH]c(=O)ccc2c1Nc1ccc(OC)cc1` registered a melting point of 243 to 246 °C.

Regarding `O=Cc1c[nH]c2cc(C(=O)NCC3CCCC3)ccc12`, the melting point fell in the range of 224 to 225 °C.

As to `C/C(=C\c1ccc(OC(C)C)cc1Oc1ncc(C(F)(F)F)cc1Cl)C(=O)NS(=O)(=O)NCCOC(C)C`, the melting point stood at 138 °C.

As to `COc1ccc2c3ccnc(C)c3n(Cc3ccccc3)c2c1`, the melting point was in the range of 131 to 133 °C.

For the molecule `CSC1=C(c2ccc(O)cc2)C(=O)c2ccc(O)cc21`, the melting point lay within 108 to 110 °C.

As to `Cc1ccc(-c2sc(N)c(C(=O)c3ccc(Cl)cc3)c2CN(C2CCCCC2)C2CCCCC2)cc1`, the melting point lay in the range of 191 to 194 °C.

The molecule `S=C(Nc1cccnc1)N1N=CCC1c1ccccc1` (stereo unspecified) came in with a melting point of 156 to 158 °C.

`CC(C)NS(=O)(=O)c1cc(-c2ncnc(C(F)F)c2Cl)c(F)cc1Cl` gave a melting point of 172 to 175 °C.

`Cn1nc2c(c1-c1ccc(Cl)cc1)Cc1ccccc1-2` returned a melting point of 131 to 133 °C.

`COc1ccc2cc(CCl)c(CCl)cc2c1Cl` showed a melting point of 103 °C.

Turning to `Cc1cnc(I)c(OCc2ccccc2)c1`, the melting point fell in the range of 83 to 85 °C.

In the case of `O=C(O)c1cccc(-c2ccc(F)c3cc(Cc4cc(F)cc(Cl)c4)sc23)c1`, the melting point is 185 to 186 °C.

On to `O=C(O)COc1cc2c(-c3ccccc3)csc2c(Cl)c1Cl`, for which the melting point was in the range of 152 to 154 °C.

`Cc1nc2c(n1-c1ccccc1)C(=O)c1ccccc1C2=O` gave a melting point of 242 °C.

As to `Cc1ccc2c(c1)C=Cc1cc(C(C)C)ccc1C2c1cn(-c2ccnc(NCC(=O)Nc3nc(CC(=O)O)cs3)n2)c(=O)[nH]c1=O` (stereo unspecified), the melting point was in the range of 215 to 220 °C.

`CCCCCCc1cnn(-c2ccccn2)c1O`: the melting point lay within 37 to 38 °C.

In turn, `CC(C)Cn1c(N)nc2c(N)nc3ccccc3c21` came in with a melting point above 250 °C.

Molecule `CCCCCOc1ccc(-c2ccc(-c3ccccc3CC)cc2)cc1` yielded a melting point of 62 to 65 °C.

Molecule `CCCCCC(CC(=O)NO)C(=O)NC(C(=O)N1CCCC1CO)C(C)C` (stereo unspecified) showed a melting point of 148 to 149 °C.

The molecule `Cc1cc(-n2ccnc2)c2cccc(O)c2n1` registered a melting point of 192 to 196 °C.

Consider `Cc1ncsc1C(O)c1ccoc1` (stereo unspecified), for which the melting point fell in the range of 44 to 46 °C.

The molecule `NNC(=S)Cc1ccc(F)cc1` had a melting point of 150 to 152 °C.

Turning to `Fc1ccccc1C1=NCc2c(N3CCCC3)ncn2-c2ccc(Cl)cc21`, the melting point was 114 to 118 °C.

`COc1ccc2c(c1)NCC(c1ccccc1)O2` (stereo unspecified) showed a melting point of 95 to 100 °C.

With `c1cc2c(c3c1CCN3)OCCO2`, the melting point lay within 130 to 132 °C.

For `O=c1c2ccc(Cl)cc2[nH]c2c(O)nn(CCN3CCN(c4ccccc4)CC3)c(=O)c12`, the melting point lay within 361 to 364 °C.

With `O=C(Nc1ccccc1-c1nnc(CSCCOc2ccccc2)o1)N1CCCC1`, the melting point is 184 to 185 °C.

Consider `COc1ccc(C2(C#Cc3cccc(-c4noc(C)n4)c3)CCCC(=O)C2)cc1OC1CCCC1` (stereo unspecified), for which the melting point was in the range of 116 to 118 °C.

In turn, `Cc1cccc(Cn2c(NC3CCN(CCO)CC3)nc3cccnc32)n1` had a melting point of 152 °C.

`COC(=O)NC[C@H]1CN(c2cc(F)c(N3CCC(n4ncnn4)CC3)c(F)c2)C(=O)O1` displayed a melting point of 168 to 170 °C.
